Assay results: BindingDB's records for doi:10.1124/jpet.300.1.305 (Merck Research Laboratories, 2002)
Square brackets hold non-standard residues; d marks the D form. Peptide text beside a SMILES is read from it. NMeR = CN[C@@H](CCCNC(=N)N)C(=O)O; Tle = CC(C)(C)[C@H](N)C(=O)O

Columns and labels:
[1] = molecular target: Neurotensin receptor type 1 (Mus musculus, UniProt O88319)
[2] = molecular target: Neurotensin receptor type 2 (Mus musculus, UniProt P70310)
Neurotensin receptor type 2, sequence (P70310 whole entry): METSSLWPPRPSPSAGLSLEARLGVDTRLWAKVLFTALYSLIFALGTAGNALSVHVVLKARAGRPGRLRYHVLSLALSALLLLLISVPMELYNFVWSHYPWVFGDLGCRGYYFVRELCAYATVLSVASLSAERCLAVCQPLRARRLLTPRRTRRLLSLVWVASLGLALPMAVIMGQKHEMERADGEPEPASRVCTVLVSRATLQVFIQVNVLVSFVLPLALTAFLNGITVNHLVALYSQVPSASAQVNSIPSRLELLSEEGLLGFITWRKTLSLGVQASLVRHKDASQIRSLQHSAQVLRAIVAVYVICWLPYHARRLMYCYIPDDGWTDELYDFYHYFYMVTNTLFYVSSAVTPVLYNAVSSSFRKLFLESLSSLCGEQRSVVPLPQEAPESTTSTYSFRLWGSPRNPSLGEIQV

Neurotensin receptor type 1, sequence (O88319 whole entry): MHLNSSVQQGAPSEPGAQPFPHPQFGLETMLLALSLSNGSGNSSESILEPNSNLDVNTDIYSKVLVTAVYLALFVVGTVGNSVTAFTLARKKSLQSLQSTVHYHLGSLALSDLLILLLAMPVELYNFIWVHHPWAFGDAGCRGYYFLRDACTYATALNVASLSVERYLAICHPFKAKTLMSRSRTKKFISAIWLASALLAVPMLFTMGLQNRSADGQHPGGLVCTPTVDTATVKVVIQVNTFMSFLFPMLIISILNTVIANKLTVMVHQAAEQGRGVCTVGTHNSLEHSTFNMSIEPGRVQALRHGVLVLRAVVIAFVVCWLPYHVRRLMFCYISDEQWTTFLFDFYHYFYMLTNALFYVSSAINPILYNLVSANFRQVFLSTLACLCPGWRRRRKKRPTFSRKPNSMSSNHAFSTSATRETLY

Compound | Ki [1] [nM] | Ki [2] [nM]
CN[C@@H](CCCNC(=N)N)C(=O)N[C@@H](CCCCN)C(=O)N1CCC[C@H]1C(=O)N[C@@H](Cc1c[nH]c2ccccc12)C(=O)N[C@H](C(=O)N[C@@H](CC(C)C)C(=O)O)C(C)(C)C (H-[NMeR]KPW[Tle]L-OH) | 0.11 | 3.8
CC1CN(C2CCC(C#N)(c3ccc(F)cc3)CC2)CCC1(C(=O)O)c1ccccc1 (stereo not given) [NSC_54385] | – | 17
H-KNPYIL-OH [NSC_128644] | 0.25 | 7
